The record followed here is BigSolDB 2.1.

`Br.CC(C)c1ccc(NC2=NCCC3(CCCCC3)[Se]2)cc1`: the solubility (mole fraction) (in general, solubility expressed as the solute's share of all molecules) is, setting by setting: (in n-hexane, 293.15 K) 4.69e-06; (in n-hexane, 298.15 K) 5.82e-06; (in n-hexane, 303.15 K) 7.39e-06; (in n-hexane, 308.15 K) 8.84e-06; (in n-hexane, 313.15 K) 1.11e-05; (in n-octanol, 293.15 K) 0.0484. The compound further returned a solubility (mole fraction) (in n-octanol, 298.15 K) of 0.0551; a solubility (mole fraction) (in n-octanol, 303.15 K) of 0.0647; a solubility (mole fraction) (in n-octanol, 308.15 K) of 0.0728; a solubility (mole fraction) (in n-octanol, 313.15 K) of 0.0831.

Take `Br.c1ccc(NC2=NCCC3(CCCCC3)[Se]2)cc1`: the solubility (mole fraction) runs as follows: (in n-hexane, 293.15 K) 4.94e-06; (in n-hexane, 298.15 K) 5.94e-06; (in n-hexane, 303.15 K) 7.1e-06; (in n-hexane, 308.15 K) 8.46e-06; (in n-hexane, 313.15 K) 9.98e-06; (in n-octanol, 293.15 K) 0.0186. For the same compound, the solubility (mole fraction) runs as follows: (in n-octanol, 298.15 K) 0.0229; (in n-octanol, 303.15 K) 0.0278; (in n-octanol, 308.15 K) 0.0329; (in n-octanol, 313.15 K) 0.0385.

Take `Br.Fc1ccc(NC2=NCCC3(CCCCC3)[Se]2)cc1`: the solubility (mole fraction) is, setting by setting: (in n-hexane, 293.15 K) 1.27e-06; (in n-hexane, 298.15 K) 1.59e-06; (in n-hexane, 303.15 K) 1.9e-06; (in n-hexane, 308.15 K) 2.35e-06; (in n-hexane, 313.15 K) 2.89e-06; (in n-octanol, 293.15 K) 0.003. Moreover, the solubility (mole fraction) was determined as 0.0036 (in n-octanol, 298.15 K); 0.0042 (in n-octanol, 303.15 K); 0.0048 (in n-octanol, 308.15 K); 0.0055 (in n-octanol, 313.15 K).
